# Assay results from US20250197490A1, “ANTI-CORTICOTROPIN-RELEASING HORMONE ANTIBODIES AND USE IN CONGENITAL ADRENAL HYPERPLASIA” (HBM ALPHA THERAPEUTICS, INC., priority 2021, published 2025).
# System: human CRHR1
# Assay: CRH-induced luciferase reporter blocking in CHO-CRE-hCRHR1 cells
# Assay type: cell-based
# Conditions: in words
# Description: To generate a CHO-CRE-Luciferase Reporter stable cell line, a mixture of 2 million CHO-K1 cells with 10 μg of pGL4.29/luc2P/CRE/Hygro plasmid in 100 μl of Ingenio solution was transferred into electroporation cuvettes and subjected to 1 or 2 pulses using an Electro Cell Manipulator (950 uF and 120V). The processed cells were transferred into a 6-well plate with 2 mL of Dulbecco's Modified Eagle's Medium (DMEM)/F12 with 10% fetal bovine serum (FBS). After 24 hours, selection antibiotic hygromycin at 500 μg/ml was added to the cells. […] Using matrix dilution, the pool of CHO-CRE cells was subcloned into 96-well plates. Individual stable clones were harvested when selected colonies became obvious. Positive clones were validated using a series of diluted forskolin. Validated positive clones were frozen for the future use.
# To create CHO-CRE-hCRHR1,-hCRHR2,-mCRHR1, and -mCRHR2 reporter cell lines, pcDNA3.1-hCRHR1,-hCRHR2,-mCRHR1, and -mCRHR2 were introduced into CHO-CRE cells established above by electroporation as described above. Selection antibiotics hygromycin at 500 μg/ml and G418 at 1,000 μg/ml were employed. […]
# 50 μl of 4× serially diluted antibodies was added (8 points, ¼ diluted by growth medium) to plates containing CHO-CRE-hCRHR1 cells, and 50 μl of 4×CRH (4× is 2 nM, final is 0.5 nM) was added. […] Plates were read in a luciferase plate reader (En Vision, PerkinElmer).
smiles,measurement,value
"CCCCN(CC)c1nc(C)nc2c1c(C)c(C)n2-c1c(C)cc(C)cc1C [Antalarmin, N-butyl-N-ethyl-(2,5,6-trimethyl-7-(2,4,6-trimethylphenyl)-7H-pyrrolo (2,3-d)pyrimidin-4-yl)amine, reference compound]",blocking activity in human CRHR1 luciferase reporter assay (CRH-mediated luciferase expression),blocked
